Measurements from paper PMC5421785, “Citrullination only infrequently impacts peptide binding to HLA class II MHC” (PLoS ONE, 2017).
Read-outs that look alike come from different tables or passages of the source. Square brackets hold non-standard residues; d marks the D form. Ends that are not written are not given here. Peptide text beside a SMILES is read from it. Cit = NC(=O)NCCC[C@H](N)C(=O)O

Legend:
[1] = biological target: T1, HLA-DRB1*04:01 (Homo sapiens, UniProt P01903+P01911, A100K/A169T/F76Y/I96L/K127E/L162R/M171V/N62H/P40V/Q125Y/R42H/S133A/S149N/S66Y/V115G/V209L/W38E); test: HLA class II peptide binding, inhibition of radiolabeled peptide binding to purified MHC
T1 construct: EBV transformed homozygous cell lines were used as sources of MHC molecules; endogenous in cells; host or cells: EBV transformed homozygous cell lines

[2] = biological target: T2, HLA-DRB1*01:01 (Homo sapiens, UniProt P01903+P01911, A100R/D57E/F55L/F60I/F76Y/I96L/L162R/M171V/P40L/Q125E/R42F/V115G/Y59C); test: as above
T2 construct: EBV transformed homozygous cell lines were used as sources of MHC molecules; endogenous in cells; host or cells: EBV transformed homozygous cell lines

[3] = wild-type (unmodified Arg) 15-mer peptide, purified HLA-DRB1*04:01, read-out: DRB1*04:01 binding capacity, WT peptide (IC50 nM)
[4] = wild-type (unmodified Arg) 15-mer peptide, purified HLA-DRB1*01:01, read-out: DRB1*01:01 binding capacity, WT peptide (IC50 nM)
[5] = citrullinated 15-mer (X), purified MHC, inhibition of radiolabeled peptide binding, dash = IC50 >40,000 nM, read-out: DRB1*04:01 binding capacity, Cit peptide (IC50 nM)
[6] = citrullinated 15-mer (X), purified MHC, inhibition of radiolabeled peptide binding, dash = IC50 >40,000 nM, read-out: DRB1*01:01 binding capacity, Cit peptide (IC50 nM)
[7] = citrullinated 15-mer peptide (X = citrulline), purified HLA-DRB1*04:01, read-out: DRB1*04:01 binding capacity, Cit peptide (IC50 nM)
[8] = citrullinated 15-mer peptide (X = citrulline), purified HLA-DRB1*01:01, read-out: DRB1*01:01 binding capacity, Cit peptide (IC50 nM)
[9] = read-out: DRB1*04:01 binding capacity, WT peptide (IC50 nM)
[10] = read-out: DRB1*01:01 binding capacity, WT peptide (IC50 nM)
[11] = ratio of WT IC50 to Cit IC50, >1 = citrullination increases binding

IC50 [1, 5] [nM]	IC50 [2, 6] [nM]	IC50 [1, 7] [nM]	IC50 [2, 8] [nM]	Compound	also measured
–	–	31800	> 40000	CC[C@H](C)[C@H](NC(=O)[C@H](CCC(=O)O)NC(=O)[C@H](CC(=O)O)NC(=O)[C@H](CCC(N)=O)NC(=O)[C@H](CC(C)C)NC(=O)[C@H](CCCNC(N)=O)NC(=O)CNC(=O)[C@@H](NC(=O)[C@@H](N)[C@@H](C)O)[C@@H](C)CC)C(=O)N[C@@H](CCC(N)=O)C(=O)N[C@@H](CC(N)=O)C(=O)N[C@@H](CCSC)C(=O)N[C@@H](CCCCN)C(=O)N[C@@H](CCC(=O)O)C(=O)N[C@@H](CCC(=O)O)C(=O)O [TIGXLQDEIQNMKEE] (H-TIG[Cit]LQDEIQNMKEE-OH)	–
–	–	> 40000	2690	C[C@H](NC(=O)CNC(=O)[C@@H]1CCCN1C(=O)[C@@H]1CCCN1C(=O)CNC(=O)[C@H](CCC(N)=O)NC(=O)[C@H](C)NC(=O)CNC(=O)[C@H](CCCNC(N)=O)NC(=O)[C@H](C)NC(=O)CNC(=O)[C@H](CCCCN)NC(=O)[C@@H]1CCCN1C(=O)CNC(=O)[C@@H](N)[C@@H](C)O)C(=O)O [TGPKGAXGAQGPPGA] (H-TGPKGA[Cit]GAQGPPGA-OH)	–
29700	5590	–	–	CC(C)C[C@H](NC(=O)[C@H](C)NC(=O)[C@H](C)NC(=O)[C@@H](NC(=O)[C@H](CC(C)C)NC(=O)[C@H](CC(=O)O)NC(=O)[C@@H]1CCCN1C(=O)[C@H](CCCCN)NC(=O)[C@@H](N)CO)[C@@H](C)O)C(=O)N[C@@H](CCCNC(=N)N)C(=O)N[C@@H](CC(=O)O)C(=O)N[C@H](C(=O)N[C@@H](CCCNC(N)=O)C(=O)N[C@@H](CCC(N)=O)C(=O)N[C@@H](CCC(N)=O)C(=O)O)C(C)C [SKPDLTAALRDVXQQ] (H-SKPDLTAALRDV[Cit]QQ-OH)	–
–	–	> 40000	18	CC(C)C[C@H](NC(=O)CNC(=O)[C@H](CCCNC(=N)N)NC(=O)[C@H](C)NC(=O)CNC(=O)[C@@H]1CCCN1C(=O)[C@@H](N)CC(C)C)C(=O)N[C@H](C(=O)NCC(=O)N[C@@H](CCCNC(N)=O)C(=O)N1CCC[C@H]1C(=O)NCC(=O)N[C@@H](CC(=O)O)C(=O)N[C@@H](C)C(=O)NCC(=O)O)[C@@H](C)O [LPGARGLTGXPGDAG] (H-LPGARGLTG[Cit]PGDAG-OH)	–
–	–	12900	122	CC[C@H](C)[C@H](NC(=O)CNC(=O)[C@@H]1CCCN1)C(=O)N[C@@H](CC(=O)O)C(=O)N[C@@H](CCSC)C(=O)N[C@@H](CO)C(=O)N[C@@H](C)C(=O)N[C@@H](Cc1ccccc1)C(=O)N[C@@H](C)C(=O)NCC(=O)N[C@@H](CC(C)C)C(=O)NCC(=O)N1CCC[C@H]1C(=O)N[C@@H](CCCNC(N)=O)C(=O)N[C@@H](CCC(=O)O)C(=O)O [PGIDMSAFAGLGPXE] (H-PGIDMSAFAGLGP[Cit]E-OH)	–
–	–	> 40000	> 40000	C[C@H](NC(=O)[C@@H]1CCCN1C(=O)CNC(=O)[C@@H]1CCCN1)C(=O)NCC(=O)N1CCC[C@H]1C(=O)N[C@H](C(=O)NCC(=O)N[C@@H](CCCCN)C(=O)N[C@@H](CCC(N)=O)C(=O)NCC(=O)N[C@@H](CC(=O)O)C(=O)N[C@@H](CCCNC(N)=O)C(=O)NCC(=O)N[C@@H](CCC(=O)O)C(=O)O)[C@@H](C)O [PGPAGPTGKQGDXGE] (H-PGPAGPTGKQGD[Cit]GE-OH; N-terminus and C-terminus assumed)	DRB1*04:01 binding capacity, WT/cit ratio [1, 11]: 1.0; DRB1*01:01 binding capacity, WT/cit ratio [2, 11]: 1.0
11	0.7	–	–	CC(C)C[C@H](NC(=O)[C@H](CC(C)C)NC(=O)[C@H](CCCNC(=N)N)NC(=O)[C@@H](NC(=O)CNC(=O)[C@@H]1CCCN1C(=O)[C@@H](NC(=O)[C@H](CO)NC(=O)[C@H](CO)NC(=O)[C@H](CCCNC(N)=O)NC(=O)[C@H](CC(C)C)NC(=O)[C@H](CCCNC(=N)N)NC(=O)[C@@H](NC(=O)[C@H](C)NC(=O)[C@@H](N)CO)C(C)C)C(C)C)C(C)C)C(=O)O [SAVRLXSSVPGVRLL] (H-SAVRL[Cit]SSVPGVRLL-OH)	–
–	–	1070	57	CC[C@H](C)[C@H](NC(=O)[C@H](CC(=O)O)NC(=O)[C@H](CC(C)C)NC(=O)[C@H](C)NC(=O)[C@H](CCSC)NC(=O)[C@H](CCCCN)NC(=O)[C@@H](NC(=O)[C@H](CC(N)=O)NC(=O)[C@H](CC(C)C)NC(=O)[C@H](CC(C)C)NC(=O)[C@H](CC(=O)O)NC(=O)[C@H](CCC(N)=O)NC(=O)[C@H](Cc1ccc(O)cc1)NC(=O)[C@H](CCC(=O)O)NC(=O)[C@@H](N)CCCNC(N)=O)C(C)C)C(=O)O [XEYQDLLNVKMALDI]	–
–	–	14300	7860	CC[C@H](C)[C@H](NC(=O)[C@@H](NC(=O)[C@H](CCC(N)=O)NC(=O)CNC(=O)[C@H](CC(=O)O)NC(=O)[C@H](CCCNC(N)=O)NC(=O)[C@@H](NC(=O)[C@H](CCC(=O)O)NC(=O)[C@@H](NC(=O)[C@@H](N)[C@@H](C)O)C(C)C)[C@@H](C)O)C(C)C)C(=O)N[C@@H](CC(N)=O)C(=O)N[C@@H](CCC(=O)O)C(=O)N[C@H](C(=O)N[C@@H](CO)C(=O)N[C@@H](CCC(N)=O)C(=O)O)[C@@H](C)O [TVETXDGQVINETSQ] (H-TVET[Cit]DGQVINETSQ-OH)	–
7160	896	–	–	CC(C)C[C@H](NC(=O)[C@H](C)NC(=O)[C@H](C)NC(=O)[C@@H](N)[C@@H](C)O)C(=O)N[C@@H](CCCNC(=N)N)C(=O)N[C@@H](CC(=O)O)C(=O)N[C@H](C(=O)N[C@@H](CCCNC(N)=O)C(=O)N[C@@H](CCC(N)=O)C(=O)N[C@@H](CCC(N)=O)C(=O)N[C@@H](Cc1ccc(O)cc1)C(=O)N[C@@H](CCC(=O)O)C(=O)N[C@@H](CO)C(=O)N[C@H](C(=O)N[C@@H](C)C(=O)O)C(C)C)C(C)C [TAALRDVXQQYESVA] (H-TAALRDV[Cit]QQYESVA-OH)	–

Second part, the compound before the results:

Compound	IC50 [1, 5] [nM]	IC50 [2, 6] [nM]	IC50 [1, 7] [nM]	IC50 [2, 8] [nM]	also measured
DGPKGARGDSGPPGR [Collagen 926 WT]	–	–	–	–	IC50 [1, 3]: 27400 nM; IC50 [2, 4]: 26700 nM
MARHLREYQDLLNVK [Vimentin 376 WT]	–	–	–	–	IC50 [1, 3]: 1780 nM; IC50 [2, 4]: 270 nM
CC(C)C[C@H](NC(=O)[C@H](CCC(N)=O)NC(=O)[C@H](CC(=O)O)NC(=O)[C@@H](NC(=O)[C@H](CCC(N)=O)NC(=O)[C@H](CCCNC(=N)N)NC(=O)[C@H](CCCNC(=N)N)NC(=O)[C@H](CC(C)C)NC(=O)[C@@H](N)CCC(=O)O)C(C)C)C(=O)N[C@H](C(=O)N[C@@H](CC(N)=O)C(=O)N[C@@H](CC(=O)O)C(=O)N[C@@H](CCCCN)C(=O)N[C@@H](C)C(=O)N[C@@H](CCCNC(N)=O)C(=O)O)[C@@H](C)O [ELRRQVDQLTNDKAX] (H-ELRRQVDQLTNDKA[Cit]-OH)	8090	1160	–	–	–
PGFPGPRGPPGPQGA [Collagen 431 WT]	–	–	–	–	IC50 [1, 3]: > 40000 nM; IC50 [2, 4]: > 40000 nM
CC(C)C[C@H](NC(=O)[C@H](C)NC(=O)[C@H](CC(=O)O)NC(=O)[C@H](CC(N)=O)NC(=O)[C@H](CC(N)=O)NC(=O)[C@H](CCCNC(=N)N)NC(=O)[C@H](CC(N)=O)NC(=O)[C@H](C)NC(=O)[C@H](C)NC(=O)[C@H](CCC(=O)O)NC(=O)[C@H](CO)NC(=O)[C@H](CC(C)C)NC(=O)[C@H](CC(=O)O)NC(=O)[C@H](C)N)C(=O)N[C@@H](CCCNC(N)=O)C(=O)O [ADLSEAANRNNDALX] (H-ADLSEAANRNNDAL[Cit]-OH)	23300	6180	–	–	–
FRQDVDNASLARLDL [Vimentin 206 WT]	–	–	–	–	IC50 [1, 9]: 144 nM; IC50 [2, 10]: 5260 nM
CC(C)C[C@H](NC(=O)[C@H](C)NC(=O)[C@H](CO)NC(=O)CN)C(=O)N[C@@H](CCCNC(=N)N)C(=O)N1CCC[C@H]1C(=O)N[C@@H](CO)C(=O)N[C@H](C(=O)N[C@@H](CO)C(=O)N[C@@H](CCCNC(N)=O)C(=O)N[C@@H](CO)C(=O)N[C@@H](CC(C)C)C(=O)N[C@@H](Cc1ccc(O)cc1)C(=O)N[C@@H](C)C(=O)N[C@@H](CO)C(=O)O)[C@@H](C)O [GSALRPSTSXSLYAS]	803	25	–	–	–
ERGRTGPAGAAGARG [Collagen 331 WT]	–	–	–	–	IC50 [1, 3]: > 40000 nM; IC50 [2, 4]: 1610 nM
PGQRGERGFPGLPGP [Collagen 986 WT]	–	–	–	–	IC50 [1, 3]: > 40000 nM; IC50 [2, 4]: 743 nM
GPSGKDGPKGARGDS [Collagen 921 WT]	–	–	–	–	IC50 [1, 3]: > 40000 nM; IC50 [2, 4]: > 40000 nM
CC(C)C[C@H](NC(=O)[C@H](C)NC(=O)[C@H](CO)NC(=O)CN)C(=O)N[C@@H](CCCNC(=N)N)C(=O)N1CCC[C@H]1C(=O)N[C@@H](CO)C(=O)N[C@H](C(=O)N[C@@H](CO)C(=O)N[C@@H](CCCNC(=N)N)C(=O)N[C@@H](CO)C(=O)N[C@@H](CC(C)C)C(=O)N[C@@H](Cc1ccc(O)cc1)C(=O)N[C@@H](C)C(=O)N[C@@H](CO)C(=O)O)[C@@H](C)O [Vimentin 41 WT]	–	–	–	–	IC50 [1, 9]: 860 nM; IC50 [2, 10]: 3.4 nM
CC[C@H](C)[C@H](NC(=O)[C@H](CC(=O)O)NC(=O)[C@H](CCC(=O)O)NC(=O)[C@H](C)NC(=O)[C@H](CC(C)C)NC(=O)[C@H](CC(N)=O)NC(=O)[C@@H](N)CC(=O)O)C(=O)N[C@@H](CCSC)C(=O)N[C@@H](CCCNC(=N)N)C(=O)N[C@@H](CC(C)C)C(=O)N[C@@H](CCCNC(N)=O)C(=O)N[C@@H](CCC(=O)O)C(=O)N[C@@H](CCCCN)C(=O)N[C@@H](CC(C)C)C(=O)N[C@@H](CCC(N)=O)C(=O)O [DNLAEDIMRLXEKLQ] (H-DNLAEDIMRL[Cit]EKLQ-OH)	> 40000	1610	–	–	–
